Non-standard residues stand in square brackets, D forms with d. No end group written: not given here.
Columns and labels:
[1] = test system: edema caused by intradermal injection of recombinant human IL-1β in the mouse ear; test: IL-1β-induced ear edema with centrally administered α-MSH and receptor antagonists; type: in vivo, BALB/c mice
Description: See Macaluso, A., McCoy, D., Ceriani, G., Watanabe, T., Biltz, J., Catania, A., and Lipton, J. M., Anti-inflammatory Influences of a-MSH Molecules: Central Neurogenic and Peripheral Actions, 14(4), J. of Neuroscience 2377-2382 (1994). Female BALB/c mice (Simonsen Laboratories, Gilroy, Calif.), 7-8 weeks old, were housed at 23-25° C. in groups not exceeding five animals per cage [28 cm (L)×18 cm (W)×13 cm (H)]. Before the experiments they were acclimatized for not less than 1 week before experimentation to standard lighting and temperature conditions with food and water freely available.
Mice were anesthetized with 10% pentobarbital sodium solution (1 mg/mouse, 50 mg/ml, Nembutal sodium solution; Abbott Laboratories, North Chicago, Ill.). Baseline ear thickness measurements were taken with a spring-loaded micrometer (Swiss Precision Instruments, Los Angeles, Calif.). Ear thickness was expressed in centimeters and was measured at least twice at each time point. The average thickness of unstimulated ears was […]. Inflammation was induced by injecting 20 μl of recombinant human IL-1β (1500 U; Genzyme, Cambridge, Mass.) directly into the skin (intradermally) of one ear of each mouse using a 28 gauge needle (Hiltz et al., 1992). Measures of ear thickness were repeated 4 and 6 hr later, while the mice were under sodium pentobarbital anesthesia.
Several agents were administered at the time of ear challenge to pharmacologically block certain receptors: atropine (Sigma Chemical Co.; 150 μg i.p.), a muscarinic receptor blocker that acts on autonomic end-organ receptors, was chosen because of links between inflammation and modulation of pain and the finding that muscarinic antagonists increase pain threshold (Hartvig et al., 1989); phentolamine (Sigma; 150 μg i.p.) an agent that competes for occupancy of α-adrenergic receptors; propranolol (Sigma; 150 μg, i.p.; 30 μg, i.c.v.), a nonspecific competitive antagonist for β-adrenergic receptors.
Because of the size of the experiments and the requirement for several shipments of animals over time, several experiments were performed, each with complete treatment and control groups drawn from the same shipment of mice. Omnibus analysis of variance techniques (Dynastat, Washington, D.C.) were used to test overall differences among group means. Tukey's protected t test was used to compare individual means. Probability values of <0.05 were considered significant.

[2] = test system: carrageenan-induced swelling in rat paws; test: Rat paw edema test (carrageenan); type: in vivo, Sprague-Dawley rats; conditions: 100 mg/kg intraperitoneal, rats
Description: A second in vivo bioassay for anti-inflammatory activity was conducted in which the action of the tripeptide (SEQ ID NO: 1) was compared to that of hydrocortisone. In this assay, the two agents were given at similar doses and tested for their independent ability to inhibit carrageenan-induced swelling in rat paws. This assay, the rat paw edema test, was conducted generally as it is typically performed in the art, for example, as described by Winter et al. (1962), Proc. Soc. Exp. Biol. Med., 111:544 or in U.S. Pat. No. 4,150,137.
Briefly, the assay was performed as follows. Each of twenty-four male Sprague-Dawley rats was assigned to one of four groups: Tripeptide treatment and controls (matched according to body weight and initial paw volume), hydrocortisone treatment and matched controls. The volume of the right rear paw of the test and control animals was determined using standard procedures and a mercury displacement volumetric technique. […] One hour later 0.5 ml of 1% lambda carrageenan in saline solution was injected into the right rear paw of the animals and the paw volume was again recorded (baseline measure). For comparison of the effects of the two treatments, paw volume of experimental animals measured at hourly intervals was expressed as a percentage of the volume change of their respective matched controls.

C. albicans = C. albicans colony forming units (candidacidal activity); type: cell-based; conditions: for relative potency in reducing C. albicans viability: FIG. 2, 10^−4M melanocortin peptides
Description: C. albicans (clinical isolate) was obtained from the collection of the Department of Microbiology, Ospedale Maggiore di Milano and maintained on Sabouraud's agar slants and periodically transferred to Sabouraud's agar plates and incubated for 48 hours at 28° C. To prepare a stationary growth phase yeast, a colony was taken from the agar plate and transferred into 30 ml Sabouraud-dextrose broth and incubated for 72 hours at 32° C. Cells were centrifuged and suspended in Hank's balanced salt solution (“HBSS”) to the desired concentration. Viability, determined by the exclusion of 0.01% methylene blue, remained >98%.
C. albicans (1×10^6/ml in HBSS) was incubated in the presence or absence or α-MSH(1-13) (SEQ ID NO: 3) or (11-13) (SEQ ID NO: 1) at concentrations in the range of 10^−15 M to 10^−6 M for 2 hours at 37° C. Cells were then washed in cold distilled water and diluted with HBSS to a concentration of 100 organisms/ml. One-ml aliquots were dispensed on blood agar plates and incubated for 48 hours at 37° C. Organism viability was estimated from the number of colonies formed.
In subsequent experiments using familiar procedures we compared activity of α-MSH(4-10) (SEQ ID NO: 10), (6-13) (SEQ ID NO: 2), (11-13) (SEQ ID NO: 1), ACTH(1-39) (SEQ ID NO: 9), (18-39) (SEQ ID NO: 11) and fluconazole, the latter an established antifungal agent. Melanocortin peptides and fluconazole were tested in concentrations of 10^−6 M to 10^−4 M. There were at least six replicates for each concentration of peptide. […]

[3] = test system: inflammation induced in the ear by picryl chloride application; test: Picryl chloride-induced ear swelling; type: in vivo, BALB/C mice; conditions: for % Inhibition 3 h: 3 h after picryl chloride; for % Inhibition 6 h: 6 h after picryl chloride; for overall effect on inflammation (ANOVA): 10-80 μg IP, 3 and 6 h
Description: Hiltz, M. E., Catania, A., Lipton, J. M., Anti-Inflammatory Activity of aα-MSH (11-13) Analogs: Influence of Alteration in Stereochemistry, 12 Peptides 767 (1981). […] Female BALB/C mice (Simonsen Laboratories), 7 weeks old, were housed at 23-25° C. in groups of no more than 5 per cage [28 cm (L)×18 cm (W)×13 cm (H)]. They were allowed to acclimatize to standard lighting and temperature conditions for at least 1 week, with food and water available ad lib, before the experiment began. Five to ten animals were randomly assigned to each treatment group each test day, and all experiments were repeated at least twice to confirm reproducibility. To reduce error due to slight differences in responses to the irritant of animals from different shipments, tests of each agent were performed as separate experiments in which experimental and control animals were drawn from the same shipment.
In the experiments each animal was anesthetized with 1 mg of pentobarbital sodium solution ([…], Nembutal, Abbott Laboratories, Abbott park, Ill.). Baseline ear thickness was measured for both ears with a spring-loaded micrometer (Swiss Precision Instruments, Los Angeles, Calif.). Ear thickness was expressed in units of 10^−3 cm; the average thickness of unstimulated ears was approximately 25-30×10^−3 cm. After baseline measurements were taken, one of six solutions was injected IP. […] The doses of the tripeptides were 10 μg (2.6×.10^−8 M), 20 μg (5.2×.10^−8 M), 40 μg (1.04×.10^−7 M), and 80 μg (2.08×.10^−7 M). Immediately after saline or α-MSH injection, a micropipette was used to coat both sides of each ear with 10 μl […] of a 0.5% picryl chloride (Polysciences, Warrington, Pa.) solution in acetone.
Ear thickness was remeasured 3 and 6 h after picryl chloride application. Swelling was determined by subtracting baseline thickness from the measurements for each ear at 3 and 6 h. The differences for both ears were then averaged for the final analysis.
Repeated-measure ANOVA techniques were used to determine if there was an overall difference among group data for each peptide tested in separate experiments. In those cases in which the ANOVA yielded significant results, Dunnett's test was then used to compare the effects of peptide doses with control (saline) data for each of the two time periods, 3 and 6 h.

[4] = antagonist administered intraperitoneally

| Compound | effect of antagonist on the anti-inflammatory influence of centrally administered α-MSH(1-13) [1, 4] | % Inhibition 3 h ([3]; 10 μg IP) [%] | % Inhibition 6 h ([3]; 10 μg IP) [%] | % Inhibition 3 h ([3]; 20 μg IP) [%] | % Inhibition 6 h ([3]; 20 μg IP) [%] | % Inhibition 3 h ([3]; 40 μg IP) [%] | % Inhibition 6 h ([3]; 40 μg IP) [%] | % Inhibition 3 h ([3]; 80 μg IP) [%] | % Inhibition 6 h ([3]; 80 μg IP) [%] | overall effect on inflammation (ANOVA) [3] | other results |
| --- | --- | --- | --- | --- | --- | --- | --- | --- | --- | --- | --- |
| CC(C)NCC(O)COc1ccc(CC(N)=O)cc1 (stereo not drawn) [atenolol] | little inhibition |  |  |  |  |  |  |  |  |  |  |
| CN1[C@@H]2CC[C@H]1C[C@@H](OC(=O)C(CO)c1ccccc1)C2 (stereo partly drawn) [atropine] | did not alter |  |  |  |  |  |  |  |  |  |  |
| COc1ccc(OC)c(C(O)C(C)NC(C)(C)C)c1 (stereo not drawn) [butoxamine] | significantly reduced |  |  |  |  |  |  |  |  |  |  |
| C[C@]12CCC(=O)C=C1CC[C@@H]1[C@@H]2[C@@H](O)C[C@@]2(C)[C@H]1CC[C@]2(O)C(=O)CO [hydrocortisone, reference compound] |  |  |  |  |  |  |  |  |  |  | anti-inflammatory activity (inhibition of paw edema) ([2]; between 1 and 4 hours): nearly identical anti-inflammatory activity; decrease in paw inflammation ([2]; first hour after carrageenan injection): ~30% |
| Cc1ccc(N(CC2=NCCN2)c2cccc(O)c2)cc1 [phentolamine] | did not alter |  |  |  |  |  |  |  |  |  |  |
| CC(C)NCC(O)COc1cccc2ccccc12 (stereo not drawn) [propranolol] | inhibited |  |  |  |  |  |  |  |  |  | effect of antagonist on the anti-inflammatory influence of centrally administered α-MSH(1-13) ([1]; antagonist injected centrally): little effect |
| ACTH(1-39): adrenocortitrophic hormone (ACTH) peptide 1-39 (SYSMEHFRWGKPVGKKRRPVKVYPAGEDDEASEAFPLEF; listed as Homo sapiens) [reference compound] |  |  |  |  |  |  |  |  |  |  | relative potency in reducing C. albicans viability (C. albicans): did not reduce |
| ACTH(18-39): ACTH fragment (18-39) (CLIP) (RPVKVYPAGEDDEASEAFPLEF; Designed polypeptide with anti-inflammatory, anti-microbial, anti-fungal, and anti-viral properties.) [reference compound] |  |  |  |  |  |  |  |  |  |  | relative potency in reducing C. albicans viability (C. albicans): did not reduce |
| Ac-[D-Lys^11, D-Val^13]α-MSH(11-13)-NH2 (Ac-[dK]-Pro-[dV]-NH2; SMILES CC(=O)N[C@H](CCCCN)C(=O)N1CCC[C@H]1C(=O)N[C@@H](C(N)=O)C(C)C) |  | 22 | 22 | 55 | 46 | 42 | 41 | 40 | 44 | significant overall reduction in inflammation |  |
| Ac-[D-Lys^11]α-MSH(11-13)-NH2 (Ac-[dK]-Pro-Val-NH2; SMILES CC(=O)N[C@H](CCCCN)C(=O)N1CCC[C@H]1C(=O)N[C@H](C(N)=O)C(C)C) |  | 23 | 17 | 25 | 16 | 35 | 37 | 34 | 29 | significantly reduced inflammation |  |
| Ac-[D-Pro^12]α-MSH(11-13)-NH2 (Ac-Lys-[dP]-Val-NH2; SMILES CC(=O)N[C@@H](CCCCN)C(=O)N1CCC[C@@H]1C(=O)N[C@H](C(N)=O)C(C)C) |  | 4 | 8 | 11 | 5 | 10 | 8 | 8 | 6 | no significant effect on inflammation |  |
| Ac-[D-Val^13]α-MSH(11-13)-NH2 (Ac-Lys-Pro-[dV]-NH2; SMILES CC(=O)N[C@@H](CCCCN)C(=O)N1CCC[C@H]1C(=O)N[C@@H](C(N)=O)C(C)C) [Ac-[D-Pro^13]α-MSH(11-13)-NH2] |  | 24 | 23 | 48 | 54 | 39 | 45 | 41 | 29 | marked inhibitory influence |  |
| VPK-Ac-CC-Ac-KPV (Ac-CKPV; also: disulfide dimer via Cys) |  |  |  |  |  |  |  |  |  |  | effectiveness against microbes relative to α-MSH(11-13) (C. albicans): at least as effective as α-MSH(11-13); C. albicans colony forming units (CFU) (C. albicans; FIG. 1, incubation 2 hours at 37° C.): inhibited |
